Measurements from patent US20130303507A1 (Novartis AG, priority 2011, published 2013).

These compounds were tested against Cdk9/cyclinT1 (Homo sapiens, UniProt P50750) (assay: Cdk9/cyclinT1 IMAP protocol (fluorescence polarization)). Details: IC-50, CDK9; lower limit of assay 0.0005 micromolar.
Cdk9/cyclinT1, sequence (P50750 whole entry): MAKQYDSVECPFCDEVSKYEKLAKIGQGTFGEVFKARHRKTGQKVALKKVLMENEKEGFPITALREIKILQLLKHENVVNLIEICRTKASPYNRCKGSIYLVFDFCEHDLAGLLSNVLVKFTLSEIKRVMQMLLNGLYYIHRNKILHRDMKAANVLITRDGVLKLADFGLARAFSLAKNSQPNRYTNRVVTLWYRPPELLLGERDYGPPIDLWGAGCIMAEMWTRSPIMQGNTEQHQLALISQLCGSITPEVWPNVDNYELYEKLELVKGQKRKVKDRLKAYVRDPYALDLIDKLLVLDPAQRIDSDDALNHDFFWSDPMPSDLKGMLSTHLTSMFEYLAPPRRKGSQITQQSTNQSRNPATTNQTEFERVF
Cdk9/cyclinT1, sequence (O60563 whole entry partner): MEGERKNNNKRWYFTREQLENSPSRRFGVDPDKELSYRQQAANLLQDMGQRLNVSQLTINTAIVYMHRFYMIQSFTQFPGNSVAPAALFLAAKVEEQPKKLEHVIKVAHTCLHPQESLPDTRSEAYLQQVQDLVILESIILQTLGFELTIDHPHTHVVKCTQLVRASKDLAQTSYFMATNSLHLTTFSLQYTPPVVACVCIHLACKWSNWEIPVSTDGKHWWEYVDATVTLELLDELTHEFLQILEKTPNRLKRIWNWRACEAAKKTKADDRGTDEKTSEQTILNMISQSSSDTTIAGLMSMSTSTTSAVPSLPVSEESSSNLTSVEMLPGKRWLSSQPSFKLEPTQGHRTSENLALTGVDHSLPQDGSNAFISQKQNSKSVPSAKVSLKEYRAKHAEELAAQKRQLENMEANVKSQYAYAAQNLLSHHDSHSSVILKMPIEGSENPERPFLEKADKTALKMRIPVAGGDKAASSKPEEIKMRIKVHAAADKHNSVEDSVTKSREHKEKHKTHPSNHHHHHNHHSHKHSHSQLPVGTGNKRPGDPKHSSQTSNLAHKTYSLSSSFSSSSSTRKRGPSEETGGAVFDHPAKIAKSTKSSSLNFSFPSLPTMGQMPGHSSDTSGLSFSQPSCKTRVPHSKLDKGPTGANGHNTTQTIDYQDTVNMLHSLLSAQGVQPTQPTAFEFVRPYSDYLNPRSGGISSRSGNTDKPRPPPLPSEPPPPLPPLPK

SMILES	IC50 [nM]
N#CC1(CNc2cccc(-c3cc(N[C@H]4CC[C@@H](O)C4)ncc3Cl)n2)CCOCC1 (relative stereo) [Example 404]	< 0.5
CC(C)N[C@@H]1CC[C@@H](Nc2cc(-c3cccc(NCC4(C#N)CCOCC4)n3)c(Cl)cn2)C1 (relative stereo) [Example 408]	0.6
CO[C@@H]1C[C@@H](Nc2cc(-c3cccc(NCC4(C#N)CCOCC4)n3)c(Cl)cn2)CC[C@@H]1N (single isomer, unassigned) [Compound 435]	≤ 0.5
CO[C@H]1C[C@H](Nc2cc(-c3cccc(NCC4(C#N)CCOCC4)n3)c(Cl)cn2)CC[C@H]1N (single isomer, unassigned) [Compound 436]	< 0.5
COC[C@@H](C)N[C@H]1CC[C@H](Nc2cc(-c3cccc(NCC4(C#N)CC4)n3)c(Cl)cn2)CC1 [Cmpd 400, 1-(((5′-chloro-2′-((trans-4-(((R)-1-methoxypropan-2-yl)amino)cyclohexyl)amino)-[2,4′-bipyridin]-6-yl)amino)methyl)cyclopropane-carbonitrile]	< 0.5
COCCN[C@@H]1CC[C@@H](Nc2cc(-c3cccc(NCC4(C#N)CCOCC4)n3)c(Cl)cn2)C1 [Compound 409, 4-(((5′-chloro-2′-(((1R,3R)-3-((2-methoxyethyl)amino)cyclopentyl)amino)-[2,4′-bipyridin]-6-yl)amino)methyl)tetrahydro-2H-pyran-4-carbonitrile]	0.6
N#CC1(CNc2cccc(-c3cc(N[C@@H]4CC[C@@H](NCC5CCCO5)C4)ncc3Cl)n2)CCOCC1 (stereo partly drawn) [Compound 410, 4-(((5′-chloro-2′-(((1R,3R)-3-(((tetrahydrofuran-2-yl)methyl)amino)cyclopentyl)amino)-[2,4′-bypyridin]-6-yl)amino)methyl)tetrahydro-2H-pyran-4-carbonitrile]	< 0.5
N#CC1(CNc2cccc(-c3cc(N[C@@H]4CC[C@@H](NC5CCOC5)C4)ncc3Cl)n2)CCOCC1 (stereo partly drawn) [Compound 411, 4-(((5′-chloro-2′-(((1R,3R)-3-((tetrahydrofuran-3-yl)amino)cyclopentyl)amino)-[2,4′-bipyridin]-6-yl)amino)methyl)tetrahydro-2H-pyran-4-carbonitrile]	1.8
CC(C)N[C@H]1CC[C@H](Nc2cc(-c3cccc(NCC4(C#N)CCOCC4)n3)c(Cl)cn2)CC1 [Compound 412, 4-(((5′-chloro-2′-((trans-4-(isopropylamino)cyclohexyl)amino)-[2,4′-bipyridin]-6-yl)amino)methyl)tetrahydro-2H-pyran-4-carbonitrile]	< 0.5
N#CC1(CNc2cccc(-c3cc(NC4CCC(N)CC4)ncc3Cl)n2)CC1 (stereo not drawn) [Compound 413, 1-(((2′-((4-aminocyclohexyl)amino)-5′-chloro-[2,4′-bipyridin]-6-yl)amino)methyl)cyclopropane-carbonitrile]	< 0.5
N#CC1(CNc2cccc(-c3cc(N[C@H]4CC[C@H](NCC5(C#N)CC5)CC4)ncc3Cl)n2)CCOCC1 [Compound 414, 4-(((5′-chloro-2′-((trans-4-(((1-cyanocyclopropyl)methyl)amino)cyclohexyl)amino)-[2,4′-bipyridin]-6-yl)amino)methyl)tetrahydro-2H-pyran-4-carbonitrile]	< 0.5
COCCO[C@H]1CC[C@H](Nc2cc(-c3cccc(NCC4(C#N)CCOCC4)n3)c(Cl)cn2)CC1 [Compound 415, 4-(((5′-chloro-2′-((trans-4-(2-methoxyethoxy)cyclohexyl)amino)-[2,4′-bipyridin]-6-yl)amino)methyl)tetrahydro-2H-pyran-4-carbonitrile]	4.9
CC1(C)CN([C@H]2CC[C@H](Nc3cc(-c4cccc(NCC5(C#N)CCOCC5)n4)c(Cl)cn3)CC2)CCO1 [Compound 416, 4-(((5′-chloro-2′-((trans-4-(2,2-dimethylmorpholino)cyclohexyl)amino)-[2,4′-bipyridin]-6-yl)amino)methyl)tetrahydro-2H-pyran-4-carbonitrile]	21
N#CC1(CNc2cccc(-c3cc(N[C@H]4CC[C@H](N5CCNC(=O)C5)CC4)ncc3Cl)n2)CCOCC1 [Compound 417]	1.3
N#CC1(CNc2cccc(-c3cc(N[C@H]4CC[C@@H](N5CCNC(=O)C5)CC4)ncc3Cl)n2)CCOCC1 [Compound 418, 4-(((5′-chloro-2′-((cis-4-(3-oxopiperazin-1-yl)cyclohexyl)amino)-[2,4′-bipyridin]-6-yl)amino)methyl)tetrahydro-2H-pyran-4-carbonitrile]	8.5
N#CC1(CNc2cccc(-c3cc(N[C@H]4CC[C@H](NCC(N)=O)CC4)ncc3Cl)n2)CCOCC1 [Compound 419, 2-((trans-4-((5′-chloro-6-(((4-cyanotetrahydro-2H-pyran-4-yl)methyl)amino)-[2,4′-bipyridin]-2′-yl)amino)cyclohexyl)amino) acetamide]	< 0.5
CNC(=O)CN[C@H]1CC[C@H](Nc2cc(-c3cccc(NCC4(C#N)CCOCC4)n3)c(Cl)cn2)CC1 [Compound 420, 2-((trans-4-((5′-chloro-6-(((4-cyanotetrahydro-2H-pyran-4-yl)methyl)amino)-[2,4′-bipyridin]-2′-yl)amino)cyclohexyl)amino)-N-methylacetamide]	< 0.5
CN(C)C(=O)CN(CC(=O)N(C)C)[C@H]1CC[C@H](Nc2cc(-c3cccc(NCC4(C#N)CCOCC4)n3)c(Cl)cn2)CC1 [Compound 421, 2,2′-((trans-4-((5′-chloro-6-(((4-cyanotetrahydro-2H-pyran-4-yl)methyl)amino)-[2,4′-bipyridin]-2′-yl)amino)cyclohexyl)azanediyl) bis(N,N-dimethylacetamide)]	2.7
CS(=O)(=O)CCN[C@H]1CC[C@H](Nc2cc(-c3cccc(NCC4(C#N)CCOCC4)n3)c(Cl)cn2)CC1 [Compound 422, 4-(((5′-chloro-2′-((trans-4-((2-(methylsulfonyl)ethyl)amino)cyclohexyl)amino)-[2,4′-bipyridin]-6-yl)amino)methyl)tetrahydro-2H-pyran-4-carbonitrile]	< 0.5
CN(C)C(=O)CN[C@H]1CC[C@H](Nc2cc(-c3cccc(NCC4(C#N)CCOCC4)n3)c(Cl)cn2)CC1 [Compound 423, 2-((trans-4-((5′-chloro-6-(((4-cyanotetrahydro-2H-pyran-4-yl)methyl)amino)-[2,4′-bipyridin]-2′-yl)amino)cyclohexyl)amino)-N,N-dimethylacetamide]	< 0.5
N#CC1(CNc2cccc(-c3cc(N[C@H]4CC[C@H](NCCF)CC4)ncc3Cl)n2)CCOCC1 [Compound 424, 4-(((5′-chloro-2′-((trans-4-((2-fluoroethyl)amino)cyclohexyl)amino)-[2,4′-bipyridin]-6-yl)amino)methyl)tetrahydro-2H-pyran-4-carbonitrile]	< 0.5
CCOC(=O)C(C)(C)NC[C@H]1CC[C@H](Nc2cc(-c3cccc(NCC4(C#N)CCOCC4)n3)c(Cl)cn2)CC1 [Compound 425, ethyl 2-(((trans-4-((5′-chloro-6-(((4-cyanotetrahydro-2H-pyran-4-yl)methyl)amino)-[2,4′-bipyridin]-2′-yl)amino)cyclohexyl)methyl)amino)-2-methylpropanoate]	1.1
C[C@@H]1CN([C@H]2CC[C@H](Nc3cc(-c4cccc(NCC5(C#N)CCOCC5)n4)c(Cl)cn3)CC2)C[C@H](C)O1 [Compound 426, 4-(((5′-chloro-2′-((trans-4-((2S,6R)-2,6-dimethylmorpholino)cyclohexyl)amino)-[2,4′-bipyridin]-6-yl)amino)methyl)tetrahydro-2H-pyran-4-carbonitrile]	≤ 0.5
C[C@@H]1CN([C@H]2CC[C@@H](Nc3cc(-c4cccc(NCC5(C#N)CCOCC5)n4)c(Cl)cn3)CC2)C[C@H](C)O1 [Compound 427, 4-(((5′-chloro-2′-((cis-4-((2S,6R)-2,6-dimethylmorpholino)cyclohexyl)amino)-[2,4′-bipyridin]-6-yl)amino)methyl)tetrahydro-2H-pyran-4-carbonitrile]	8.2
N#CC1(CNc2cccc(-c3cc(N[C@H]4CC[C@H](N5CCCOCC5)CC4)ncc3Cl)n2)CCOCC1 [Compound 428, 4-(((2′-((trans-4-(1,4-oxazepan-4-yl)cyclohexyl)amino)-5′-chloro-[2,4′-bipyridin]-6-yl)amino)methyl)tetrahydro-2H-pyran-4-carbonitrile]	0.6
CC(C)(NC[C@H]1CC[C@H](Nc2cc(-c3cccc(NCC4(C#N)CCOCC4)n3)c(Cl)cn2)CC1)C(=O)O [Compound 429, 2-(((trans-4-((5′-chloro-6-(((4-cyanotetrahydro-2H-pyran-4-yl)methyl)amino)-[2,4′-bipyridin]-2′-yl)amino)cyclohexyl)methyl)amino)-2-methylpropanoic acid]	1.3
CC1(CN[C@H]2CC[C@H](Nc3cc(-c4cccc(NCC5(C#N)CCOCC5)n4)c(Cl)cn3)CC2)COC1 [Compound 430, 4-(((5′-chloro-2′-((trans-4-(((3-methyloxetan-3-yl)methyl)amino)cyclohexyl)amino)-[2,4′-bipyridin]-6-yl)amino)methyl)tetrahydro-2H-pyran-4-carbonitrile]	1
CC(O)(C(=O)N[C@H]1CC[C@H](Nc2cc(-c3cccc(NCC4(C#N)CCOCC4)n3)c(Cl)cn2)CC1)C(F)(F)F (stereo partly drawn) [Compound 431, N-(trans-4-((5′-chloro-6-(((4-cyanotetrahydro-2H-pyran-4-yl)methyl)amino)-[2,4′-bipyridin]-2′-yl)amino)cyclohexyl)-3,3,3-trifluoro-2-hydroxy-2-methylpropanamide]	1.7
CC(C)(C)OCCN[C@H]1CC[C@H](Nc2cc(-c3cccc(NCC4(C#N)CCOCC4)n3)c(Cl)cn2)CC1 [Compound 432, 4-(((2′-((trans-4-((2-(tert-butoxy)ethyl)amino)cyclohexyl)amino)-5′-chloro-[2,4′-bipyridin]-6-yl)amino)methyl)tetrahydro-2H-pyran-4-carbonitrile]	< 0.5
N#CC1(CNc2cccc(-c3cc(N[C@H]4CC[C@H](NCCC(F)(F)F)CC4)ncc3Cl)n2)CCOCC1 [Compound 433, 4-(((5′-chloro-2′-((trans-4-((3,3,3-trifluoropropyl)amino)cyclohexyl)amino)-[2,4′-bipyridin]-6-yl)amino)methyl)tetrahydro-2H-pyran-4-carbonitrile]	0.6
